Laboratory results taken from patent publication US9688683B2, “Substituted condensed pyrimidine compounds” (GRÜNENTHAL GMBH, priority 2013, dated 2017).

Target: human PDE4B1 (Homo sapiens (Human), UniProt Q07343)
Experiment: cAMP HTRF assay to determine the activity of hPDE4B1
Format: biochemical
Settings: human recombinant PDE4B1 expressed in Sf9 cells; cAMP 40 nM; N=1-2, n=2; read-out: PDE4B IC50-value
Experimental: A: Determination of the PDE4B IC50 Values with a cAMP HRTF® Assay to Determine the Activity of hPDE4B1
The inhibiting effect of the compounds on the enzyme activity of human PDE4B1 is measured by the quantification of 5′-AMP, which is formed from 3′,5′-adenosine monophosphate (cAMP). Human recombinant enzyme, expressed in Sf9 cells, and the HTRF (homogeneous time-resolved fluorescence) detection method are used in the assay.
The test compound or water (control) is mixed with the human recombinant PDE4B1 enzyme (4.8 U) in a buffer consisting of 44.4 mM tris-HCl, 5.28 mM MgCl2, 2.64 mM DTT and 0.044% Tween 20 (pH 7.8). After adding the cAMP enzyme substrate (final concentration 40 nM) the mixture is incubated for 30 minutes at room temperature. Then a fluorescence acceptor (Dye2 marked with cAMP), a fluorescence donor (anti-cAMP antibody marked with a europium cryptate) and the non-specific phosphodiesterase inhibitor IBMX (3-isobutyl-1-methylxanthine; final concentration 1 mM) are added. After 60 minutes the fluorescence transfer, which correlates with the amount of remaining cAMP, is measured with a microplate reader (Rubystar, BMG) at λex=337 nm, λem=620 nm and λem=665 nm. The enzyme activity is calculated from the quotient formed from the measured signal at 665 nm and that at 620 nm. The result is expressed as the percentage inhibition of enzyme activity of the control (without PDE4 inhibitor) (literature: N. Saldou et al., Comparison of recombinant human PDE4 isoforms: interaction with substrate and inhibitors, Cell. Signal. Vol. 10, No. 6, 427-440, 1998). The enzyme is omitted for measurement of the basal control.

Sequence of human PDE4B1 (Q07343 whole entry): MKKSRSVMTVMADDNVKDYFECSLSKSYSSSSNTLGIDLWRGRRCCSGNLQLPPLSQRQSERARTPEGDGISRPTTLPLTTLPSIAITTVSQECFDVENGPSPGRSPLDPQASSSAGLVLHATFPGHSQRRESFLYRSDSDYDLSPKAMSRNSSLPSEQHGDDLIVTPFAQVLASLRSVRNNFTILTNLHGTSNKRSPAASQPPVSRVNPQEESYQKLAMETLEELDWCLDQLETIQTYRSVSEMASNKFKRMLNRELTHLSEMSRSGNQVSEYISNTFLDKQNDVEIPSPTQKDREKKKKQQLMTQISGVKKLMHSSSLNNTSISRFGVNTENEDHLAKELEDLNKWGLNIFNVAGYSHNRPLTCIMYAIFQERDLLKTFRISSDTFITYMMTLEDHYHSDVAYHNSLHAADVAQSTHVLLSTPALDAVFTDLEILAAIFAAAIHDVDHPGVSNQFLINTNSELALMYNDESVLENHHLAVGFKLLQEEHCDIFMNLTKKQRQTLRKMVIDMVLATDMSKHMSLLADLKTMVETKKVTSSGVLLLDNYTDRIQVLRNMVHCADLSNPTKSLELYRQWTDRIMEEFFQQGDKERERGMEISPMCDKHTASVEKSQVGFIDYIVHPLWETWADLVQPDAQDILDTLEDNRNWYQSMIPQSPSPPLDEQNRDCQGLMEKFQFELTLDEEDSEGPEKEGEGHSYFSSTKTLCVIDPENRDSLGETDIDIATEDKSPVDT

Compound | IC50
COc1ccc(-c2nc(C3CC3)c3ccn(-c4cccc(OCC(=O)N(C)C)c4)c3n2)cc1F [Compound 76, 2-(3-(4-cyclopropyl-2-(3-fluoro-4-methoxyphenyl)-7H-pyrrolo[2,3-d]pyrimidin-7-yl)phenoxy)-N,N-dimethylacetamide] | 1 to 10 µM
CCc1nc(-c2cccnc2)nc2c1ccn2-c1cccc(OCC(=O)N(C)C)c1 [Compound 83, 2-(3-(4-ethyl-2-(pyridin-3-yl)-7H-pyrrolo[2,3-d]pyrimidin-7-yl)phenoxy)-N,N-dimethylacetamide] | < 1 µM
CCc1nc(-c2ccc(OC)nc2)nc2c1ccn2-c1cccc(OCC(=O)N(C)C)c1 [Compound 77, 2-(3-(4-ethyl-2-(6-methoxypyridin-3-yl)-7H-pyrrolo[2,3-d]pyrimidin-7-yl)phenoxy)-N,N-dimethylacetamide] | 1 to 10 µM
COc1ccc(-c2nc(C)c3ccn(-c4ccc(C(=O)O)cc4)c3n2)cc1F [Compound 1, 4-(2-(3-Fluoro-4-methoxyphenyl)-4-methyl-7H-pyrrolo[2,3-d]pyrimidin-7-yl)benzoic acid] | < 1 µM
CCc1nc(-c2ccncc2)nc2c1ccn2-c1cccc(OCC(=O)N(C)C)c1 [Compound 82, 2-(3-(4-ethyl-2-(pyridin-4-yl)-7H-pyrrolo[2,3-d]pyrimidin-7-yl)phenoxy)-N,N-dimethylacetamide] | < 1 µM
CCc1nc(-c2cccnc2OC)nc2c1ccn2-c1cccc(OCC(=O)N(C)C)c1 [Compound 80, 2-(3-(4-ethyl-2-(2-methoxypyridin-3-yl)-7H-pyrrolo[2,3-d]pyrimidin-7-yl)phenoxy)-N,N-dimethylacetamide] | < 1 µM
COc1ccc(-c2nc(C)c3ccn(-c4ccc(C(=O)O)cc4)c3n2)cc1Cl [Compound 14, 4-(2-(3-Chloro-4-methoxyphenyl)-4-methyl-7H-pyrrolo[2,3-d]pyrimidin-7-yl)benzoic acid] | < 1 µM
COc1ccc(-c2nc(OC)c3ccn(-c4ccc(C(=O)O)cc4)c3n2)cc1Cl [Compound 45, 4-(2-(3-chloro-4-methoxyphenyl)-4-methoxy-7H-pyrrolo[2,3-d]pyrimidin-7-yl)benzoic acid] | 1 to 10 µM
COc1ccc(-c2nc(C)c3c(n2)N(c2cccc(OCC(=O)N(C)C)c2)CC32CC2)cc1F [Compound 79, 2-(3-(2′-(3-fluoro-4-methoxyphenyl)-4′-methylspiro-[cyclopropane-1,5′-pyrrolo[2,3-d]pyrimidin]-7′(6′H)-yl)phenoxy)-N,N-dimethylacetamide] | 1 to 10 µM

Results, then the compound that gave them:

IC50 | Compound
1 to 10 µM | CCc1nc(-c2ccc(OC)c(F)c2)nc2c1CCN2c1cccc(OCC(=O)N(C)CC2CC2)c1 [Compound 51, N-(cyclopropylmethyl)-2-(3-(4-ethyl-2-(3-fluoro-4-methoxyphenyl)-5H-pyrrolo[2,3-d]pyrimidin-7(6H)-yl)phenoxy)-N-methylacetamide]
1 to 10 µM | CCc1nc(-c2ccc(OC)c(F)c2)nc2c1CCN2c1cccc(OCC(=O)NC2COC2)c1 [Compound 47, 2-(3-(4-ethyl-2-(3-fluoro-4-methoxyphenyl)-5H-pyrrolo[2,3-d]pyrimidin-7(6H)-yl)phenoxy)-N-(oxetan-3-yl)acetamide]
< 1 µM | CCc1nc(-c2ccc(Cl)s2)nc2c1CCN2c1ccc(C(=O)O)cc1 [Compound 46, 4-(2-(5-chlorothiophen-2-yl)-4-ethyl-5H-pyrrolo[2,3-d]pyrimidin-7(6H)-yl)benzoic acid]
< 1 µM | CCc1nc(-c2ccc(OC)c(F)c2)nc2c1ccn2-c1ccc(CC(=O)O)cc1 [Compound 4, 2,2,2-Trifluoroacetic acid compound with 2-(4-(4-ethyl-2-(3-fluoro-4-methoxyphenyl)-7H-pyrrolo[2,3-d]pyrimidin-7-yl)phenyl)acetic acid (1:1)]
< 1 µM | CCc1nc(-c2ccc(OC)c(F)c2)nc2c1CCN2c1cccc(OCC(=O)N(C)C)c1 [Compound 9, 2-(3-(4-Ethyl-2-(3-fluoro-4-methoxyphenyl)-5H-pyrrolo[2,3-d]pyrimidin-7(6H)-yl)phenoxy)-N,N-dimethylacetamide]
< 1 µM | COc1ccc(-c2nc(C)c3c(n2)N(c2ccc(CC(=O)O)cc2)CC3C)cc1F (stereo not shown) [Compound 12, 2,2,2-Trifluoroacetic acid compound with 2-(4-(2-(3-fluoro-4-methoxyphenyl)-4,5-dimethyl-5H-pyrrolo[2,3-d]pyrimidin-7(6H)-yl)phenyl)acetic acid (1:1)]
< 1 µM | CCc1nc(-c2ccc(Cl)s2)nc2c1CCN2c1cccc(OCC(=O)N(C)C)c1 [Compound 40, 2-(3-(2-(5-chlorothiophen-2-yl)-4-ethyl-5H-pyrrolo[2,3-d]pyrimidin-7(6H)-yl)phenoxy)-N,N-dimethylacetamide]
< 1 µM | COc1ccc(-c2nc(C)c3c(n2)N(c2ccc(CC(=O)O)cc2)CC3)cc1F [Compound 7, 2-(4-(2-(3-Fluoro-4-methoxyphenyl)-4-methyl-5H-pyrrolo[2,3-d]pyrimidin-7(6H)-yl)phenyl)acetic acid]
< 1 µM | CCc1nc(-c2ccc(OC)c(F)c2)nc2c1ccn2-c1ccc(C(=O)O)cc1 [Compound 2, 4-(4-ethyl-2-(3-fluoro-4-methoxyphenyl)-7H-pyrrolo[2,3-d]pyrimidin-7-yl)benzoic acid]
< 1 µM | Cc1nc(-c2ccc(Cl)s2)nc2c1CCN2c1ccc(CC(=O)O)cc1 [Compound 39, 2,2,2-Trifluoroacetic acid compound with 2-(4-(2-(5-chlorothiophen-2-yl)-4-methyl-5H-pyrrolo[2,3-d]pyrimidin-7(6H)-yl)phenyl)acetic acid (1:1)]
< 1 µM | COc1ccc(-c2nc(C)c3c(n2)N(c2ccc(CC(=O)O)cc2)CC3C)cc1Cl (stereo not shown) [Compound 24, 2,2,2-Trifluoroacetic acid compound with 2-(4-(2-(3-chloro-4-methoxyphenyl)-4,5-dimethyl-5H-pyrrolo[2,3-d]pyrimidin-7(6H)-yl)phenyl)acetic acid (1:1)]
< 1 µM | CCc1nc(-c2ccc(OC)c(Cl)c2)nc2c1CCN2c1ccc(CC(=O)O)cc1 [Compound 21, 2-(4-(2-(3-Chloro-4-methoxyphenyl)-4-ethyl-5H-pyrrolo[2,3-d]pyrimidin-7(6H)-yl)phenyl)acetic acid]

Same assay, conditions: inhibition of PDE4B at a test substrate concentration of 3 μM

Compound | inhibition at 3 µM
CCOc1ccc(-c2nc(CC)c3ccn(-c4cccc(OCC(=O)N(C)C)c4)c3n2)cc1 [Compound 95, 2-(3-(2-(4-Ethoxyphenyl)-4-ethyl-7H-pyrrolo[2,3-d]pyrimidin-7-yl)phenoxy)-N,N-dimethylacetamide] | 41%
CCc1nc(-c2ccc(S(C)(=O)=O)cc2)nc2c1ccn2-c1cccc(OCC(=O)N(C)C)c1 [Compound 91, 2-(3-(4-Ethyl-2-(4-(methylsulfonyl)phenyl)-7H-pyrrolo[2,3-d]pyrimidin-7-yl)phenoxy)-N,N-dimethylacetamide] | 52%
CCc1nc(-c2ccc(OC)c(Cl)c2)nc2c1ccn2-c1cccc(OCC(=O)N(C)C)c1 [Compound 92, 2-(3-(2-(3-Chloro-4-methoxyphenyl)-4-ethyl-7H-pyrrolo[2,3-d]pyrimidin-7-yl)phenoxy)-N,N-dimethylacetamide] | 67%
CCc1nc(-c2ccc(OC)c(F)c2)nc2c1ccn2-c1cccc(OCC(=O)N(C)C)c1 [Compound 85, 2-(3-(4-Ethyl-2-(3-fluoro-4-methoxyphenyl)-7H-pyrrolo[2,3-d]pyrimidin-7-yl)phenoxy)-N,N-dimethylacetamide] | 43%

The remaining lines, values ahead:

inhibition at 3 µM | Compound
39% | CCOc1ccc(-c2nc(CC)c3c(n2)N(c2ccc(CC(=O)O)cc2)CC3)cc1 [Compound 96, 2-(4-(2-(4-Ethoxyphenyl)-4-ethyl-5H-pyrrolo[2,3-d]pyrimidin-7(6H)-yl)phenyl)acetic acid]
45% | CCc1nc(-c2ccc3occc3c2)nc2c1CCN2c1ccc(C(=O)O)cc1 [Compound 84, 4-(2-(Benzofuran-5-yl)-4-ethyl-5H-pyrrolo[2,3-d]pyrimidin-7(6H)-yl)benzoic acid]
57% | CCc1nc(-c2ccc3ncsc3c2)nc2c1CCN2c1ccc(CC(=O)O)cc1 [Compound 93, 2-(4-(2-(Benzo[d]thiazol-6-yl)-4-ethyl-5H-pyrrolo[2,3-d]pyrimidin-7(6H)-yl)phenyl)acetic acid]
43% | CCOc1cccc(-c2nc(CC)c3c(n2)N(c2ccc(C(=O)O)cc2)CC3)c1 [Compound 98, 4-(2-(3-Ethoxyphenyl)-4-ethyl-5H-pyrrolo[2,3-d]pyrimidin-7(6H)-yl)benzoic acid]
63% | CCc1nc(-c2ccc3occc3c2)nc2c1CCN2c1ccc(CC(=O)O)cc1 [Compound 89, 2-(4-(2-(Benzofuran-5-yl)-4-ethyl-5H-pyrrolo[2,3-d]pyrimidin-7(6H)-yl)phenyl)acetic acid]
52% | CCc1nc(-c2ccc3c(c2)OCO3)nc2c1ccn2-c1cccc(OCC(=O)N(C)C)c1 [Compound 87, 2-(3-(2-(Benzo[d][1,3]dioxol-5-yl)-4-ethyl-7H-pyrrolo[2,3-d]pyrimidin-7-yl)phenoxy)-N,N-dimethylacetamide]
